Laboratory results: PMC4081560 (PLoS ONE, 2014)

Key:
[1] = test system: K/2785 virus (A/Korea/2785/2009); format: cell-based, 2009 pandemic H1N1 oseltamivir-resistant variant
[2] = biological target: K/2785 virus (A/Korea/2785/2009) neuraminidase (NA H275Y) (Influenza A virus, UniProt C5MQP8, H275Y); format: biochemical, 2009 pandemic H1N1 oseltamivir-resistant variant

In the case of `NC(=O)c1nc(F)cnc1O` [Favipiravir, 6-fluoro-3-hydroxy-2-pyrazinecarboxamide], the EC50 [1] is reported as 10.8 µM.

With `CCC(CC)[C@H](NC(C)=O)[C@@H]1[C@H](O)[C@@H](C(=O)O)C[C@H]1N=C(N)N` [Peramivir] the IC50 [2] was 29.8 nM and the “higher concentration needed compared with K/09 virus” value [2] was “more than 20 fold”.
